For 1 substance, Collagen-1 results are on record in US12582593B2, “Oral care compositions for gum health” (The Procter & Gamble Company, priority 2021, dated 2026).

The test system of the test is Primary Human Gingival Fibroblast (HGF). Nature of the test: In-vitro 2D tissue damage assay via Collagen-1 marker (Collagen-1 ELISA after TBHP challenge). In kind it is cell-based. As to conditions: 0.5% gel dilution 24 hr, 50 μM TBHP 1 hr, 24 hr in complete media; supernatant. On the procedure: In vitro gingival 2D gingival fibroblast tissue damage/prevention was used to assess the effects of treatment with Inventive Compositions and Comparative compositions on collagen-1 ELISA assay.
The obtained tissues were kept in cold Dulbecco's modified Eagle's medium (DMEM, Gibco) with 10% fetal bovine serum and a cocktail of antibiotics and antimycotics. Next, the tissues were minced with a blade and spun down at 4° C. and 200×g for 5-10 minutes to separate and wash the pellets. Resuspended tissue explants were laid onto a 60 mm dish and kept in an incubator. Every 3-5 days during culture, fibroblasts grown from tissue explants were washed and continued under passage using 0.2% trypsin. Proliferation tests and cell damage recovery experiments were performed when the fibroblasts reached passages 3-10.
Primary Human gingival fibroblast (HGF) cell was maintained in a 37° C. incubator with 5% CO2 saturation. Dulbecco's modified Eagle's medium (DMEM, Gibco) containing 10% fetal calf serum, 1% penicillin-streptomycin was used as the complete culture medium, which was changed every 2-3 days.
1.8×10^5 Cells were seeded in a 6-well plate and cultured with complete medium in at 37° C. and 5% CO2 for 24 hr. […] The supernatant of cell culture was collected and analysed by Collagen-1 ELISA kit (CUSABIO).

In the case of TGF-B [Positive control (TGF-B)], the Collagen-1 was determined as 155.59 ng/mL.
